Data: patent US10765729B2, “Tumor antigen peptide” (Sapporo Medical University, priority 2014, dated 2020)
Values joined by “and” are separate entries in the source; they are usually repeats but may differ in a detail not shown here. Identical values can stand only once. Where no end group is shown, it is not given here.

What was measured:
[1] = tested on: peripheral blood mononuclear cells derived from HLA-A*02:01-positive healthy individuals; assay: CTL inducibility using human peripheral blood mononuclear cells, IFNγ ELISPOT; type: cell-based; conditions: peptide 20 μg/mL, IL-2 100 U/mL, about 2 weeks, FIGS. 39-43
Protocol: (§1) Subsequently, approximately 1×10^5 cells were plated in each well of a 96-well U bottom plate, and cultured at 37° C. under 5% CO2. At this time, human IL-2 and peptide were added at 100 U/mL and 20 μg/mL, respectively. The medium was exchanged every 3 or 4 days and an IFNγ ELISPOT assay was carried out after about 2 weeks. On the day before the assay, ELISPOT plates were treated with anti-IFNγ antibody, and on the day of assay, they were blocked with RPMI1640 medium containing 10% fetal calf serum at room temperature for about 2 hours. The human peripheral blood mononuclear cells in the culture were washed with an AIM-V medium containing 10% human-derived serum and plated in each well of the blocked ELISPOT plate. After culturing at 37° C. under 5% CO2 for 16 to 18 hours, the supernatant was removed and the ELISPOT plates were subjected to color development according to the attached protocol. The number of colored spots was measured with an ELISPOT analyzer manufactured by Cellular Technology Limited. […] In addition, black bars indicate the number of spots detected under peptide stimulation conditions, and white bars indicate the number of spots (controls) detected under no peptide pulse conditions.

[2] = tested on: peripheral blood mononuclear cells derived from HLA-A*24:02-positive healthy individuals; assay: as above; type: cell-based; conditions: peptide 20 μg/mL, IL-2 100 U/mL, about 2 weeks, FIGS. 44, 45
Protocol: as §1

[3] = target: HLA-A*24:02 (Homo sapiens, UniProt P04439, D101N/D140Y/D185E/E176V/E190D/F33S/G103R/G107R/I119L/I121M/I306V/K335N/L105A/L180Q/L300P/N151K/N90K/Q86E/Q94H/R106L/R138H/R89G/T104I/T345S/V100E/W191G/Y123F); type: binding
[4] = target: T1, HLA-A*02:01 (Homo sapiens, UniProt P04439, D140Y/D185E/D98H/E176V/E277Q/G131W/G231S/I119V/I121R/I166T/I218V/L300P/L318F/N151K/N90K/P208A/P217A/Q86G/Q94H/R138H/R169H/T345S); type: binding
T1 construct: T2 cells can usually only express a low level of empty MHC class I molecules on the cell surface; endogenous in cells; host or cells: T2-A24 cells (human lymphoblastoid T2 cells)

[5] = tested on: human colon cancer cell line (SW480); assay: Detection of SP fraction by Hoechst 33342/PI flow cytometry; type: cell-based; conditions: verapamil final concentration 75 μM; Hoechst 33342 5.0 μM; FIG. 1
Protocol: 5% fetal calf serum (FCS (HyClone Laboratories))-supplemented DMEM (Sigma-Aldrich) medium was prepared as a medium and warmed at 37° C. Verapamil (Sigma-Aldrich) was adjusted to 50 mM and diluted to 5 mM using the 5% FCS-supplemented DMEM medium. Hoechst 33342 (Lonza) was adjusted to 250 μg/mL using the 5% FCS-supplemented DMEM medium. DNase I (Qiagen) was adjusted to 1 mg/mL using DDW and sterilized by filtration using a 0.2 μm filter.
A human colon cancer cell line (SW480 (ATCC)) was suspended in 4 mL of the 5% FCS-supplemented DMEM medium, and the number of cells was counted. Furthermore, the 5% FCS-supplemented DMEM medium was added so as to adjust the cell concentration to 10×10^6 cells/mL, thus giving a sample. Using part of the sample, dispensing was carried out; verapamil was not added to a main sample (verapamil(−) sample), and verapamil was added to a secondary sample so as to give a final concentration of 75 μM (verapamil(+) sample). Subsequently, the Hoechst 33342 solution was added to the verapamil(+) sample and the verapamil(−) sample so as to give a Hoechst 33342 final concentration of 5.0 μM. […]
First, cells in the verapamil(−) sample were analyzed, and cells in a cell group (side population (SP)) having low emission intensity compared with a main cell group (main population (MP)) were detected (FIG. 1).

[6] = tested on: T2-A24 cells; assay: Cytotoxicity test (LDH release) of CTLs toward peptide-pulsed T2-A24 cells; type: cell-based, human; conditions: peptide pulse 20 μg/mL; E/T ratio 1, 3, 9; CTL induced by IV9; FIG. 10
Protocol: (§2) T2-A24 cells, SW480-SP, SW480-MP, and K562 HLA-class I-deficient leukemia cells (obtained from ATCC) were suspended in 10% FBS-supplemented RPMI at a cell concentration of 1×10^6 cells/mL. Washing was carried out three times with 10 mL of 10% FBS-supplemented RPMI.
(§3) T2-A24 cells were pulsed with IV9 peptide and HIV584-594 peptide as a positive control for T2-A24 cell binding, at a concentration of 20 μg/mL at room temperature for 1 hour. As a negative control, a group without peptide pulses was used. With regard to experimental group of T2-A24 cells, three groups were defined: [1] no peptide pulse, [2] HIV584-594 peptide pulse, and [3] IV9 peptide pulse. In addition, K562 was pulsed with IV9 peptide under the same conditions. Both SW480-SP and SW480-MP groups were used without peptide pulses. After the peptide pulse, the cells were washed twice with PBS. The cells of each group were plated on each well at 1×10^5 cells/100 μL.
(§4) Respective numbers of effector cells (CTLs) were plated on each well so that the effector/target ratio (E/T ratio) became 1, 3, and 9. Effector cells were plated as a spontaneous release well. To the maximum release well, 4% of NP-40-added PBS was added to the target cells so that the final concentration became 2%. […] After 10 minutes, fluorescence intensity of each well was measured by Terra Scan. Cytotoxic activity was calculated using the equation below. […]

[7] = tested on: SW480-MP; assay: Cytotoxicity test (LDH release) of CTLs toward SW480-MP without peptide pulse; type: cell-based, human; conditions: CTL induced by IV9, FIG. 10
Protocol: as §2, §3, §4

For 4 (HLSVLFGHV) [compound 4], the “induction of peptide-specific CTLs from PBMC” value (“induction” below) [1] was “able to induce peptide-specific CTLs”.
With 5 (SVLFGHVECL) [compound 5] the “induction” value [1] was “able to induce peptide-specific CTLs” and the “induction” value [2] was “has CTL inducibility in both HLA-A02 type and HLA-A24 type subjects”.
In the case of 6 (KILCDRGAKL) [compound 6], the “induction” value [1] is reported as “able to induce peptide-specific CTLs”.
8 (HFGLSELVAFYV) [compound 8] was tested, and the “induction” value [1] was “able to induce peptide-specific CTLs” and the “induction” value [2] was “has CTL inducibility in both HLA-A02 type and HLA-A24 type subjects”.
9 (CYSLSGHTAL) [compound 9] was tested, and the “induction” value [1] was “able to induce peptide-specific CTLs”.
In the case of 17 (SILCAKQLV) [compound 17], the “MFI HLA-A24” value [3] is reported as 1.3.
In the case of 20 (HVLMHMMLEA) [compound 20], the “MFI HLA-A24” value [3] is reported as 1.3.
In the case of 23 (YLLLEPEGII) [compound 23], the “MFI HLA-A24” value [3] is reported as 1.4.
For 28 (RIYPPQFHKV) [compound 28], the “MFI HLA-A02” value [4] was 1.4.
34 (FEVEDENMVL) [compound 34] was tested, and the “MFI HLA-A24” value [3] was 1.4.
For 40 (QYVLKVTSV) [compound 40], the “MFI HLA-A24” value [3] was 1.3.
For 41 (LLLNHGAARI) [compound 41], the “MFI HLA-A02” value [4] was 1.3.
For `COc1ccc(CCN(C)CCCC(C#N)(c2ccc(OC)c(OC)c2)C(C)C)cc1OC` (centres unmarked) [verapamil, Verapamil], the “SP cells in flow cytometry” value [5] was “SP cells disappeared”.
In the case of “EADPTGHSY [HLA-A*02:01 Negative control, MAGE-1161-169 peptide as an HLA-A02-negative control, reference compound]”, the “HLA-A*02:01 Negative control (MFI)” value [4] is reported as 1.0.
With IYPPQFHKV [SEQ ID No. 3] the “cytotoxic activity of CTLs toward peptide-pulsed T2-A24 cells” value [6] was “high cytotoxic activity” and the “cytotoxic activity of CTLs toward SW480-MP” value [7] was “only a similar cytotoxic activity as [1] no peptide pulse group and [2] HIV peptide pulse group”.
With “RGYVYQGL [HLA-A*24:02 Negative control, reference compound]” the “HLA-A*24:02 Negative control (MFI)” value [3] was 1.0.
“RYLRDQQLL [HLA-A*24:02 Positive control, HIV584-592 peptide as an HLA-A24-positive control, reference compound]” was tested, and the “HLA-A*24:02 Positive control (MFI)” value [3] was 2.6 and 3.3 and 2.8.
